Here are results for 9 molecules from ChEMBL document CHEMBL1134746, “[3-cis-3,5-Dimethyl-(1-piperazinyl)alkyl]-bis-(4'-fluorophenyl)amine analogues as novel probes for the dopamine transporter” (Bioorg Med Chem Lett, 2001).

A value given as a limit tells only on which side of the number the result lay.

Assay [1] concerns Mus musculus. The assay is described as follows: Tested for rate of horizontal activity during a 30-min period after administration of compound at a concentration of 10 mg/kg. In kind it is functional.
In assay [2] the test system is Mus musculus. The assay is described as follows: Tested for rate of horizontal activity during a 30-min period after administration of compound at a concentration of 30 mg/kg. Type of assay: functional.
Assay [3] relates to Mus musculus. The assay is described as follows: Tested for rate of horizontal activity during a 30-min period after administration of compound at a concentration of 3 mg/kg. Type of assay: functional.
Assay [4] relates to Mus musculus. The assay is described as follows: Tested for rate of horizontal activity during a 30-min period after administration of compound at a concentration of 100 mg/kg. Type of assay: functional.
For assay [5], the system named is Mus musculus. The assay is described as follows: Tested for rate of horizontal activity during a 30-min period after administration of compound at a concentration of 50 mg/kg. In kind it is functional.
The test system of assay [6] is Mus musculus. The assay is described as follows: Tested for rate of horizontal activity during a 30-min period after administration of compound at a concentration of 5 mg/kg. In kind it is functional.
Assay [7] addresses Sodium-dependent dopamine transporter (Rattus norvegicus, UniProt P23977). The assay is described as follows: Binding affinity at Dopamine transporter by displacing [3H]WIN-35428 from rat caudate putamen. Type of assay: tissue-based.
Assay [8] addresses Norepinephrine transporter (Rattus norvegicus, UniProt Q9WTR4). The assay is described as follows: Binding affinity at norepinephrine transporter using [3H]nisoxetine as radioligand from rat brain.
The target in assay [9] is Sodium-dependent serotonin transporter (Rattus norvegicus, UniProt P31652). The assay is described as follows: Binding affinity at Serotonin transporter using [3H]citalopram as radioligand from rat brain.
Assay [10] deals with Monoamine transporters; serotonin & dopamine (Rattus norvegicus). The assay is described as follows: Selectivity ratio for DAT to SERT evaluated.
In assay [11] the test system is Monoamine transporters; Norepinephrine & dopamine (Rattus norvegicus). The assay is described as follows: Selectivity ratio of DAT to that of NET receptor.
Assay [12] deals with Mus musculus. The assay is described as follows: Tested for rate of horizontal activity during a 30-min period after administration of compound at a concentration of 0.1 mg/kg. In kind it is functional.
Assay [13] deals with Mus musculus. The assay is described as follows: Tested for rate of horizontal activity during a 30-min period after administration of compound at a concentration of 0.3 mg/kg. Type of assay: functional.
The subject of assay [14] is Mus musculus. The assay is described as follows: Tested for rate of horizontal activity during a 30-min period after administration of compound at a concentration of 1.0 mg/kg. Type of assay: functional.
Assay [15] can be described thus: Selectivity ratio of DAT to that of NET receptor. Type of assay: functional.
Assay [16] is described as follows: Selectivity ratio for DAT to SERT evaluated. Type of assay: functional.

Sequence of Sodium-dependent dopamine transporter (P23977 whole entry): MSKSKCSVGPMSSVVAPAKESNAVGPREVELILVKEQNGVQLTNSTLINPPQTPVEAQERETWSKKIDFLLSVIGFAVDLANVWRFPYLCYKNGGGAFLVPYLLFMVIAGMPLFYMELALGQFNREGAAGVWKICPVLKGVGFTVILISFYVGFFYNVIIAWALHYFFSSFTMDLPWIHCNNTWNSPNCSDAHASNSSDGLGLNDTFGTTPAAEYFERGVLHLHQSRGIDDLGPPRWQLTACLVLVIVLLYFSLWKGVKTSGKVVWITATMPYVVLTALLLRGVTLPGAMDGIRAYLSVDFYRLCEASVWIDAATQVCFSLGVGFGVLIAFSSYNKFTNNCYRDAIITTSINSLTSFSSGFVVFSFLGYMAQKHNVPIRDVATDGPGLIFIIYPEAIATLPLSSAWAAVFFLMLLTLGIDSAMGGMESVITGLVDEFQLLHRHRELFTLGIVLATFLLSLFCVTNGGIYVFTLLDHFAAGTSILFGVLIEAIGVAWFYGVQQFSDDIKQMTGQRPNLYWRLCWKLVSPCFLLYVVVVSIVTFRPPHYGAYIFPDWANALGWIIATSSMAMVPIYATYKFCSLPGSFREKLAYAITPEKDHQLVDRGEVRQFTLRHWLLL
Sequence of Norepinephrine transporter (Q9WTR4 whole entry): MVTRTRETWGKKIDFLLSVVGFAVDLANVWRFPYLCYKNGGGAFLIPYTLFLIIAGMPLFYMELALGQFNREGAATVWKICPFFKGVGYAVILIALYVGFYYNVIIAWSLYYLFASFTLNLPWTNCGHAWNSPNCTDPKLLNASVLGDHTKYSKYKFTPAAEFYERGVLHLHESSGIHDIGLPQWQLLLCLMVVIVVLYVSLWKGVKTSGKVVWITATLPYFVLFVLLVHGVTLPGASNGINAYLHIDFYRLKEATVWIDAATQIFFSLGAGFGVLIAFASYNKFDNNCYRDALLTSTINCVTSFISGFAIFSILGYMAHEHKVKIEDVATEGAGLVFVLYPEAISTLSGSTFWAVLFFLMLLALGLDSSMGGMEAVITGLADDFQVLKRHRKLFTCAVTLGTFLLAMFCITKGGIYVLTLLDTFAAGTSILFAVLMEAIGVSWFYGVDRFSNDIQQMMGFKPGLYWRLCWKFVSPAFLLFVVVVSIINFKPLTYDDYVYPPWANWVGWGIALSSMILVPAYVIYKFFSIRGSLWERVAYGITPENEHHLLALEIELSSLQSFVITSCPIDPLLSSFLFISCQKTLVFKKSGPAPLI
Sequence of Sodium-dependent serotonin transporter (P31652 whole entry): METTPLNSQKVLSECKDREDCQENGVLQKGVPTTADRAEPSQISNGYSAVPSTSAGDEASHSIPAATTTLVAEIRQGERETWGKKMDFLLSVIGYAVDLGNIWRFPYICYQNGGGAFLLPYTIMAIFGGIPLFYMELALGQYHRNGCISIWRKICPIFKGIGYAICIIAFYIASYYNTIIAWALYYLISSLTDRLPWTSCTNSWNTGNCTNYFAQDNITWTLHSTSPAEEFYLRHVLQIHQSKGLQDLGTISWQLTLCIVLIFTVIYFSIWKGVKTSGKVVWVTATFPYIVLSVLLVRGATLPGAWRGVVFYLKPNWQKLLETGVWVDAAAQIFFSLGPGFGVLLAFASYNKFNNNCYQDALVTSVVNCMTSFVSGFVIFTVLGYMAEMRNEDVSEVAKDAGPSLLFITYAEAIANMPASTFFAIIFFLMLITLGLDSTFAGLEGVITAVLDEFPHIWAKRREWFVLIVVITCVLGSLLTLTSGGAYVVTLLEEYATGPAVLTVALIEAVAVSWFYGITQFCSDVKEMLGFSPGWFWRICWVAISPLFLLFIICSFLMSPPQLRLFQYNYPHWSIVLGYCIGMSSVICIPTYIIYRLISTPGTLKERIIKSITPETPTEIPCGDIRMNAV

With `Fc1ccc(C(OCCN2CCN(CCCc3ccccc3)CC2)c2ccc(F)cc2)cc1` [VANOXERINE], the Horizontal activity in assay [1] turned out to be 300 Counts min-1; in assay [2], 400 Counts min-1; in assay [3], 175 Counts min-1; in [4], 175 Counts min-1.

Consider `COC(=O)[C@@H]1C2CC[C@@H](C[C@@H]1OC(=O)c1ccccc1)N2C` (single isomer, unassigned) [COCAINE], for which the Horizontal activity in assay [5] turned out to be 550 Counts min-1; in assay [6], 300 Counts min-1; in [1], 500 Counts min-1; in assay [2] it was 600 Counts min-1.

For `C[C@@H]1CN(CCCN(c2ccccc2)c2ccccc2)C[C@@H](C)N1`, the Ki – broadly, a measure of affinity in units of concentration, obtained from inhibition or displacement – in assay [7] was 813 nM; in assay [8], 6810 nM; in assay [9], 70900 nM. For the same molecule, the Ratio in assay [10] came to 87; in assay [11] it was 8.

As to `C[C@@H]1CN(CCCN(c2ccc(F)cc2)c2ccc(F)cc2)C[C@@H](C)N1CCCc1ccccc1`, the inhibitory constant (Ki) stood at 17.6 nM in assay [7], 1020 nM in assay [8] and 2130 nM in assay [9]. The Horizontal activity is given as approximately 200 Counts min-1 in assay [12]; approximately 210 Counts min-1 in assay [13]; approximately 250 Counts min-1 in [14]; approximately 250 Counts min-1 in assay [1]; approximately 215 Counts min-1 in assay [2]; approximately 240 Counts min-1 in assay [3]. In assay [4], this molecule yielded a Horizontal activity of approximately 50 Counts min-1. Also, the results for the Ratio in [10] and in assay [11] were 121 and 60, respectively.

Regarding `C[C@@H]1CN(CCCN(c2ccc(F)cc2)c2ccc(F)cc2)C[C@@H](C)N1CCc1ccc(Cl)c(Cl)c1`, the figures for the inhibition constant (Ki) in [7], in [8] and in assay [9] were 131 nM, more than 100000 nM and 4300 nM, respectively.

As to `C[C@@H]1CN(CCCN(c2ccc(F)cc2)c2ccc(F)cc2)C[C@@H](C)N1`, the Ki in assay [7] came to 83.2 nM; in [8], 16900 nM; in assay [9], 13100 nM. The values for the Ratio in assay [10] and in assay [11] were 158 and 203, respectively.

As to `C[C@@H]1CN(CCCN(c2ccccc2)c2ccccc2)C[C@@H](C)N1CCCc1ccccc1`, the Ki in assay [7] was determined as 61 nM; in assay [8], 3640 nM; in assay [9], 1220 nM. Further, the Ratio was 20 in assay [10] and 60 in assay [11].

Take `C[C@@H]1CN(CCCN(c2ccccc2)c2ccccc2)C[C@@H](C)N1CCc1ccc(Cl)c(Cl)c1`: the Ki is 261 nM in [7], more than 30000 nM in [8] and 5010 nM in assay [9]. Moreover, the results for the Ratio in assay [15] and in [16] were more than 115 and 19, respectively.

As to `CC1CN(CCCn2c3ccccc3c3ccccc32)C[C@@H](C)N1` (single isomer, unassigned) [RIMCAZOLE], in assay [9], the Ki came out at 1710 nM. Besides, the Horizontal activity in assay [1] is reported as approximately 250 Counts min-1; in assay [2], approximately 220 Counts min-1; in [3] it was approximately 175 Counts min-1; in assay [4], approximately 0 Counts min-1.
